Experimental data: patent US9096832B2, “Differentiation of human embryonic stem cells” (LifeScan, Inc., priority 2007, dated 2015)

Tested on: H9 embryonic stem cells
Assay: Microarray analysis of definitive endoderm stage cells on […] or MEFs +/- Wnt-3a (Table VI)
Type: cell-based, human
Conditions: for mean normalized intensity: ESTs: DE treatment in low serum on MEFS, log format
Description: Controls for each group included cells plated on [sequence]—coated dishes and cultured in MEF-conditioned medium or cells plated on MEFs and cultured in ES medium. All groups contained three biological replicates and each biological replicate was repeated on two separate gene chips.
Sample preparation, hybridization, and image analysis were performed according to the Affymetrix Human Genome U133 Plus 2.0 Array. Following normalization and a log transformation, data analysis was performed using OmniViz® software (MA) and [sequence] […] Significant differences in gene expression between the samples were evaluated using analysis of variance and an F-test with adjusted P-value (Benjamini and Hochberg correction) of less-than or equal to 0.05. Only genes with a present call in at least one group were included in the analysis.

Substance: Activin A: activin A (a member of the TGFβ superfamily), R&D Systems; 'w/o wnt' in Table VII = 100 ng/ml Activin A without Wnt3a
- mean normalized intensity: ESTs (gene line r2134): −0.9461
- mean normalized intensity: ESTs (gene line r2148): 5.334
- Intensity (log): 6-phosphofructo-2-kinasefructose-2,6-biphosphatase 4 (low serum, on MATRIGEL): −0.2429
- Intensity (log): ESTs, Highly similar to IHH_HUMAN INDIAN HEDGEHOG PROTEIN PRECURSOR (H. sapiens) (low serum, on MATRIGEL): −0.654
- Intensity (log): ESTs, Moderately similar to JE0284 Mm-1 cell derived transplantability-associated protein 1b (H. sapiens) (low serum, on MATRIGEL): −2.377
- Intensity (log): ESTs, Weakly similar to FCE2 MOUSE LOW AFFINITY IMMUNOGLOBULIN EPSILON FC RECEPTOR (M. musculus) (low serum, on MATRIGEL): 0.4942
- Intensity (log): ESTs, Weakly similar to the 331st table hypothetical protein KIAA0555 (H. sapiens) (low serum, on MATRIGEL): −1.574
- Intensity (log): G protein-coupled receptor (low serum, on MATRIGEL): 1.507
- Intensity (log): G protein-coupled receptor 49 (low serum, on MATRIGEL): 0.2655
- Intensity (log): Homo sapiens Kell blood group (KEL), mRNA (low serum, on MATRIGEL): −2.205
- Intensity (log): Homo sapiens MLL septin-like fusion (MSF), mRNA (low serum, on MATRIGEL): −3.292
- Intensity (log): Homo sapiens Mix-like homeobox protein 1 (MILD1) mRNA, complete cds (low serum, on MATRIGEL): −1.546
- Intensity (log): Homo sapiens Rho GTPase activating protein 6 (ARHGAP6), transcript variant 2, mRNA (low serum, on MATRIGEL): −1.104
- Intensity (log): Homo sapiens TBX3-iso protein (TBX3-iso), mRNA (low serum, on MATRIGEL): −2.346
- Intensity (log): Homo sapiens angiopoietin 2 (ANGPT2), mRNA (low serum, on MATRIGEL): −2.93
- Intensity (log): Homo sapiens ankyrin-like with transmembrane domains 1 (ANKTM1), mRNA (low serum, on MATRIGEL): −1.109
- Intensity (log): Homo sapiens apolipoprotein A-I (APOA1), mRNA (low serum, on MATRIGEL): −1.471
- Intensity (log): Homo sapiens apolipoprotein A-II (APOA2), mRNA (low serum, on MATRIGEL): −1.033
- Intensity (log): Homo sapiens arylsulfatase E (chondrodysplasia punctata 1) (ARSE), mRNA (low serum, on MATRIGEL): 0.283
- Intensity (log): Homo sapiens atrophin-1 interacting protein 1; activin receptor interacting protein 1 (KIAA0705), mRNA (low serum, on MATRIGEL): −4.308
- Intensity (log): Homo sapiens beta-site APP cleaving enzyme (BACE) mRNA, complete cds (low serum, on MATRIGEL): −2.0354
- Intensity (log): Homo sapiens cDNA FLJ11550 fis, clone HEMBA1002970 (low serum, on MATRIGEL): −1.222
- Intensity (log): Homo sapiens cDNA FLJ12993 fis, clone NT2RP3000197 (low serum, on MATRIGEL): 0.1473
- Intensity (log): Homo sapiens cDNA FLJ13221 fis, clone NT2RP4002075 (low serum, on MATRIGEL): 0.3557
- Intensity (log): Homo sapiens cardiac ventricular troponin C mRNA, complete cds (low serum, on MATRIGEL): −0.5497
- Intensity (log): Homo sapiens cartilage linking protein 1 (CRTL1), mRNA (low serum, on MATRIGEL): −1.315
- Intensity (log): Homo sapiens cell adhesion molecule with homology to L1CAM (close homologue of L1) (CHL1), mRNA (low serum, on MATRIGEL): −0.5412
- Intensity (log): Homo sapiens chromosome 19, cosmid R31181 (low serum, on MATRIGEL): −0.2589
- Intensity (log): Homo sapiens clone 23736 mRNA sequence (low serum, on MATRIGEL): −0.04718
- Intensity (log): Homo sapiens cryptic mRNA, complete cds (low serum, on MATRIGEL): 0.1049
- Intensity (log): Homo sapiens cystatin S (CST4), mRNA (low serum, on MATRIGEL): 0.9245
- Intensity (log): Homo sapiens cystatin SA (CST2), mRNA (low serum, on MATRIGEL): −0.1022
- Intensity (log): Homo sapiens cystatin SN (CST1), mRNA (low serum, on MATRIGEL): 0.07293
- Intensity (log): Homo sapiens cytidine deaminase (CDA), mRNA (low serum, on MATRIGEL): −3.891
- Intensity (log): Homo sapiens dual specificity phosphatase 4 (DUSP4), mRNA (low serum, on MATRIGEL): 0.9539
- Intensity (log): Homo sapiens fibroblast growth factor 8 (androgen-induced) (FGF8), mRNA (low serum, on MATRIGEL): −4.328
- Intensity (log): Homo sapiens fibroblast growth factor 17 (FGF17), mRNA (low serum, on MATRIGEL): −0.8946
- Intensity (log): Homo sapiens frizzled-related protein (FRZB), mRNA (low serum, on MATRIGEL): 0.565
- Intensity (log): Homo sapiens gastrin-releasing peptide (GRP), mRNA (low serum, on MATRIGEL): −2.741
- Intensity (log): Homo sapiens glycophorin E (GYPE), mRNA (low serum, on MATRIGEL): −2.016
- Intensity (log): Homo sapiens glycophorin Erik STA (GPErik) gene complete cds (low serum, on MATRIGEL): −1.194
- Intensity (log): Homo sapiens growth differentiation factor 3 (GDF3), mRNA (low serum, on MATRIGEL): 1.673
- Intensity (log): Homo sapiens haptoglobin (HP), mRNA (low serum, on MATRIGEL): −1.101
- Intensity (log): Homo sapiens haptoglobin-related protein (HPR), mRNA (low serum, on MATRIGEL): −2.6068
- Intensity (log): Homo sapiens homeobox protein goosecoid mRNA, complete cds (low serum, on MATRIGEL): −4.42
- Intensity (log): Homo sapiens hypothetical protein FLJ10718 (FLJ10718), mRNA (low serum, on MATRIGEL): 2.605
- Intensity (log): Homo sapiens hypothetical protein FLJ10970 (FLJ10970), mRNA (low serum, on MATRIGEL): −0.432
- Intensity (log): Homo sapiens hypothetical protein FLJ11316 (FLJ11316), mRNA (low serum, on MATRIGEL): −0.9047
- Intensity (log): Homo sapiens hypothetical protein FLJ22252 similar to SRY-box containing gene 17 (FLJ22252), mRNA (low serum, on MATRIGEL): 1.368
- Intensity (log): Homo sapiens lumican (LUM), mRNA (low serum, on MATRIGEL): −4.057
- Intensity (log): Homo sapiens mRNA for GATA-6, complete cds (low serum, on MATRIGEL): 2.219
- Intensity (log): Homo sapiens mRNA for KIAA1409 protein, partial cds (low serum, on MATRIGEL): 0.3683
- Intensity (log): Homo sapiens mRNA; cDNA DKFZp434D0818 (from clone DKFZp434D0818) (low serum, on MATRIGEL): −2.634
- Intensity (log): Homo sapiens mRNA; cDNA DKFZp586J0624 (from clone DKFZp586J0624); complete cds (low serum, on MATRIGEL): −0.8352
- Intensity (log): Homo sapiens presenilin stabilization factor b (PSF) mRNA, complete cds; alternatively spliced (low serum, on MATRIGEL): −0.8617
- Intensity (log): Homo sapiens reserved (KCNK12), mRNA (low serum, on MATRIGEL): −0.4687
- Intensity (log): Homo sapiens retinoid X receptor, gamma (RXRG), mRNA (low serum, on MATRIGEL): −2.375
- Intensity (log): Homo sapiens sema domain, immunoglobulin domain (Ig), short basic domain, secreted, (semaphorin) 3E (SEMA3E), mRNA (low serum, on MATRIGEL): −0.786
- Intensity (log): Homo sapiens sema domain, seven thrombospondin repeats (type 1 and type 1-like), transmembrane domain (TM) and short cytoplasmic domain, (semaphorin) 5A (SEMA5A), mRNA (low serum, on MATRIGEL): −1.533
- Intensity (log): Homo sapiens solute carrier family 21 (prostaglandin transporter), member 2 (SLC21A2), mRNA (low serum, on MATRIGEL): 0.7114
- Intensity (log): Homo sapiens type VI collagen alpha 2 chain precursor (COL6A2) mRNA, complete cds, alternatively spliced (low serum, on MATRIGEL): 1.7011
- Intensity (log): Homo sapiens, alpha-1 (VI) collagen (low serum, on MATRIGEL): −3.662
- Intensity (log): Homo sapiens, clone MGC: 4655, mRNA, complete cds (low serum, on MATRIGEL): 2.3772
- Intensity (log): Human (clone 8B1) Br-cadherin mRNA, complete cds (low serum, on MATRIGEL): −2.179
- Intensity (log): Human (clone HSY3RR) neuropeptide Y receptor (NPYR) mRNA, complete cds (low serum, on MATRIGEL): 1.775
- Intensity (log): Human DNA sequence from clone RP1-181C24 on chromosome 6p11.1-12.2. Contains the 3 end of the BMP5 gene for bone morphogenetic protein 5, ESTs, STSs and GSSs (low serum, on MATRIGEL): −3.723
- Intensity (log): Human Fritz mRNA, complete cds (low serum, on MATRIGEL): 0.4366
- Intensity (log): Human dipeptidyl peptidase IV (CD26) mRNA, complete cds (low serum, on MATRIGEL): −3.611
- Intensity (log): Human glycophorin HeP2 mRNA, partial cds (low serum, on MATRIGEL): −0.8435
- Intensity (log): Human link protein mRNA, complete cds (low serum, on MATRIGEL): −1.94
- Intensity (log): Human mRNA for alpha-1 type II collagen (low serum, on MATRIGEL): −2.8736
- Intensity (log): Human mRNA for apolipoprotein AI (apo AI) (low serum, on MATRIGEL): 0.2151
- Intensity (log): Human prostatic secretory protein 57 mRNA, complete cds (low serum, on MATRIGEL): −3.013
- Intensity (log): KIAA1462 protein (low serum, on MATRIGEL): −3.846
- Intensity (log): MCP-1 = monocyte chemotactic protein (human, aortic endothelial cells, mRNA, 661 nt) (low serum, on MATRIGEL): −2.276
- Intensity (log): Rho GDP dissociation inhibitor (GDI) alpha (low serum, on MATRIGEL): −1.544
- Intensity (log): WAS protein family, member 2 (low serum, on MATRIGEL): −2.187
- Intensity (log): collagen, type IX, alpha 2 (low serum, on MATRIGEL): 1.27
- Intensity (log): collagen, type VI, alpha 1 (low serum, on MATRIGEL): −1.418
- Intensity (log): hepatocyte nuclear factor 4, alpha (low serum, on MATRIGEL): −4.266
- Intensity (log): homeo box HB9 (low serum, on MATRIGEL): −1.656
- Intensity (log): hypothetical protein FLJ21032 (low serum, on MATRIGEL): 0.3557
- Intensity (log): hypothetical protein FLJ23091 (low serum, on MATRIGEL): 0.3234
- Intensity (log): microfibrillar-associated protein 4 (low serum, on MATRIGEL): 0.06379
- Intensity (log): myristoylated alanine-rich protein kinase C substrate (MARCKS, 80K-L) (low serum, on MATRIGEL): −0.7172
